From the Deep4Chem optical property database come the findings set out here.

The series can be described thus: solvent given as SMILES.
Setting [1] is: in c1cc(-n2c3ccccc3c3ccccc32)cc(-n2c3ccccc3c3ccccc32)c1.

Under “in ClCCl”, `COc1ccc(-c2c3cc4ccccc4cc3c(C#Cc3ccccc3)c3cc4cc(C)sc4cc23)cc1` yielded a fluorescence lifetime of 11.6 ns.
In turn, `Nc1ccccc1/C=C/C(F)(F)F` yielded a fluorescence lifetime (in C1CCOC1) of 7.32 ns.
Compound `COc1cc(N(CC(=O)[O-])CC(=O)[O-])c2ncccc2c1` came in with a fluorescence lifetime (in O) of 0.84 ns.
The compound `c1ccc(N(c2ccccc2)c2ccc(-c3ccc(-c4cc(-c5ccccn5)nc(-c5ccccn5)c4)cc3)cc2)cc1` gave a fluorescence lifetime (in ClCCl) of 2.68 ns.
`O=C1/C(=C2\Sc3ccc(S(=O)(=O)O)cc3C2=O)Sc2ccc(S(=O)(=O)O)cc21`: the fluorescence lifetime was 4.85 ns (in CN(C)C=O), 0.99 ns (in CO), 0.16 ns (in CS(C)=O) and 0.13 ns (in O).
For the compound `CN(C)c1ccc(-c2nc3c(c4c2-c2ccccc2CC4)-c2ccccc2CC3)cc1`, the fluorescence lifetime amounted to 0.91 ns (in C1CCOC1); 1.19 ns (in CC#N); 0.75 ns (in CCOC(C)=O); 2.13 ns (in CS(C)=O); 0.27 ns (in Cc1ccccc1); 0.8 ns (in ClCCl).
Under “in ClC(Cl)Cl”, `CC(C)(C)c1ccc(C2=c3sc(-c4ccc(C(C)(C)C)cc4)c(-c4ccc(C(C)(C)C)cc4)c3=[N+]3C2=Nc2c(-c4ccc(C(C)(C)C)cc4)c4sc(-c5ccc(C(C)(C)C)cc5)c(-c5ccc(C(C)(C)C)cc5)c4n2[B-]3(F)F)cc1` yielded a fluorescence lifetime of 1.18 ns.
On to `COc1ccc(C#Cc2c3cc4cc(C)sc4cc3c(C#Cc3ccc(OC)cc3)c3cc4cc(C)sc4cc23)cc1`, for which the fluorescence lifetime (in ClCCl) worked out at 7.7 ns.
`COc1ccc(/C=C/C2=CC(/C=C/c3ccc(OC)cc3)=[O+][B-](OC(C)=O)(OC(C)=O)O2)cc1`: the fluorescence lifetime (in C1CCOC1) was 2.38 ns; the fluorescence lifetime (in CC#N) came to 2.09 ns; the fluorescence lifetime (in CC(C)=O) turned out to be 2.29 ns; the fluorescence lifetime (in CS(C)=O) worked out at 2.26 ns; the fluorescence lifetime (in Cc1ccccc1) was determined as 2.45 ns; the fluorescence lifetime (in ClC(Cl)Cl) turned out to be 2.52 ns. For the setting “in ClCCl”, this compound returned a fluorescence lifetime of 2.63 ns.
For the compound `Nc1nc2c([nH]c(=O)n2[C@H]2C[C@H](O)[C@@H](CO)O2)c(=O)[nH]1`, the fluorescence lifetime (in O) was 0.0008 ns.
With `CN(C)c1ccc2c(-c3ccc(C(=O)[O-])cc3C(=O)[O-])c3ccc(=[N+](C)C)cc-3oc2c1`, the fluorescence lifetime is, setting by setting: (in CCO) 3.26 ns; (in O) 2.44 ns.
For `O=C1/C(=C2\Sc3ccc(S(=O)(=O)Cl)cc3C2=O)Sc2ccc(S(=O)(=O)Cl)cc21`, the fluorescence lifetime turned out to be 12 ns (in C1COCCO1) and 0.17 ns (in CS(C)=O).
In turn, `CC1(C)C(/C=C/C2=C(Oc3ccc(CCN=C=S)cc3F)C(=C/C=C3/N(CCCS(=O)(=O)[O-])c4ccccc4C3(C)C)/CCC2)=[N+](CCCS(=O)(=O)[O-])c2ccccc21` had a fluorescence lifetime (in CO) of 0.843 ns.
Under “in Cc1ccccc1”, `Cc1cc(C)c(B(c2ccccc2N2c3ccccc3Oc3ccccc32)c2c(C)cc(C)cc2C)c(C)c1` yielded a fluorescence lifetime of 62 ns.
On the same count and under the same terms, with `N#Cc1c(-n2c3ccccc3c3ccccc32)cc(N2c3ccccc3C(c3ccccc3)(c3ccccc3)c3ccccc32)cc1-n1c2ccccc2c2ccccc21` the figure was 18.4 ns.
In the case of `COc1ccc(C2=Cc3c4ccccc4c4ccccc4[n+]3[B-](F)(F)O2)cc1`, the fluorescence lifetime (in ClC(Cl)Cl) worked out at 1.58 ns.
With `CCc1c(C)[nH]c(C2=[N+]3C(=Cc4c(C)cc(C)n4[B-]3(F)F)c3ccccc32)c1C`, the fluorescence lifetime turned out to be 4.41 ns (in C1CCOC1); 5.55 ns (in CC#N); 7.03 ns (in CCCCCC); 5.6 ns (in CO); 5.9 ns (in Cc1ccccc1); 4.93 ns (in ClCCl).
The compound `CCN(CC)c1ccc2cc(-c3ccc(-c4ccc(-c5cc6ccccc6oc5=O)cc4)cc3)c(=O)oc2c1` came in with a fluorescence lifetime (in ClCCl) of 9.88 ns.
`COc1c2ccccc2c(OC)c2c1c1c(F)cccc1n2C`: the fluorescence lifetime (in C1CCCCC1) is 23.3 ns, the fluorescence lifetime (in CC#N) stood at 25.2 ns, the fluorescence lifetime (in CO) amounted to 24.4 ns and the fluorescence lifetime (in ClCCl) amounted to 21.2 ns.
For the compound `COC(=O)c1nc(Cl)c(-c2ccccc2)o1`, for the setting “in C1CCCCC1”, the fluorescence lifetime worked out at 0.67 ns.
Take `CC(C)(C)c1ccc(/C=C/c2ccc(N(c3ccc(/C=C/c4ccc(C(C)(C)C)cc4)cc3)c3ccc(-c4nc5ccccc5nc4-c4ccc(N(c5ccc(/C=C/c6ccc(C(C)(C)C)cc6)cc5)c5ccc(/C=C/c6ccc(C(C)(C)C)cc6)cc5)cc4)cc3)cc2)cc1`: for the setting “in C1CCOC1”, the fluorescence lifetime is 2.3 ns.
Regarding `CN(C)c1ccc(/C=C/C=C/c2ccc(C#N)cc2)cc1`, the fluorescence lifetime stood at 0.35 ns (in C1CCOC1); 0.56 ns (in CC#N); 0.28 ns (in CCCCCC); 0.28 ns (in CCCCOCCCC); 0.51 ns (in CCO); 0.32 ns (in CCOCC).
In turn, `COC(=O)c1cc(=O)n(C)c2cc(-c3cc4c5c(c3)CCCN5CCC4)sc12` displayed a fluorescence lifetime (in ClCCl) of 2.25 ns.
Where the note is “in Cc1ccccc1”, `COc1ccc(C2=C(c3ccc(C)cc3)C(c3ccccc3)=[N+]3C2=Nc2c(-c4ccc(OC)cc4)c(-c4ccc(C)cc4)c(-c4ccccc4)n2[B-]3(F)F)cc1` returned a fluorescence lifetime of 0.23 ns.
As to `CC1=CC(C)=[N+]2C1=Cc1c3ccccc3c(C#Cc3ccccc3)n1[B-]2(F)F`, the fluorescence lifetime came out at 5.41 ns (in CCCCCC), 5.13 ns (in CCCCCCCCO), 5.3 ns (in CCOC(C)=O) and 4.82 ns (in CN(C)C=O).
For the compound `Nc1ccccc1`, under “in C1CCCCC1”, the fluorescence lifetime came out at 3.4 ns.
In turn, `Nc1ccc(N2C(=O)c3ccc4c5ccc6c7c(ccc(c8ccc(c3c48)C2=O)c75)C(=O)N(c2ccc(N)cc2)C6=O)cc1` yielded a fluorescence lifetime (in CN(C)C=O) of 3.8 ns.
For `CN(C)c1ccc2c(c1)C(C)(C)C(=O)C=C2`, the fluorescence lifetime (in O) amounted to 3.66 ns.
With `CCCCCCC(CCCCCC)n1c(=O)c2c3ccc4cccc5c6cccc7ccc(c2c1=O)c(c76)c3c45`, the fluorescence lifetime reads like this: (in C1CCCCC1) 10.5 ns; (in CC#N) 7.5 ns; (in CC(C)=O) 7.8 ns; (in CCCCCC) 9.5 ns; (in CCO) 6.5 ns; (in CCOCC) 9.6 ns. Also, the fluorescence lifetime by setting is: (in CS(C)=O) 7.7 ns; (in Cc1ccccc1) 9.2 ns; (in ClC(Cl)(Cl)Cl) 8.7 ns; (in ClC(Cl)Cl) 6.7 ns.
For the compound `CCC1=C(C)C2=C(C)c3c(I)c(I)c(I)n3[B-](F)(F)[N+]2=C1C`, the fluorescence lifetime came to 0.331 ns (in C1CCCCC1); 0.206 ns (in CC(C)=O); 0.221 ns (in CCO); 0.241 ns (in CCOC(C)=O); 0.214 ns (in CO); 0.21 ns (in OCC(F)(F)F).
On to `O=Cc1cnc(-c2c3ccccc3cc3ccccc23)nc1`, for which the fluorescence lifetime reads like this: (in CCO) 2.3 ns; (in ClCCl) 6.3 ns.
On to `Cc1cc(C)c(C2=C3C=CC=[N+]3[B-]3(c4ccccc4)Oc4cc(O)cc5c6ccc(C)cc6c6cc2n3c6c45)c(C)c1` (stereo not given), for which the fluorescence lifetime (in ClC(Cl)Cl) came to 3 ns.
`CCCCCCCCCCCCN1C(=O)c2c(c3ccc4cc(-c5ccc(C(F)(F)F)cc5)c(OC)cc4c3c3c2ccc2cc(-c4ccc(C(F)(F)F)cc4)c(OC)cc23)C1=O` returned a fluorescence lifetime (in ClCCl) of 6.39 ns.
Take `CC(=O)OC[C@H]1O[C@@H](OCC#Cc2ccc(C3=C4C(C)=CC(/C=C/c5ccc([N+](C)(C)C)cc5)=[N+]4[B-](F)(F)n4c(/C=C/c5ccc([N+](C)(C)C)cc5)cc(C)c43)cc2)[C@H](OC(C)=O)C(OC(C)=O)[C@@H]1OC(C)=O` (stereo not given in full): the fluorescence lifetime (in CC#N) was 5.4 ns.
With `CC[n+]1c(C=C2C(=O)C(C=C3N(C)c4ccccc4C3(C)C)=C2[O-])[se]c2ccccc21`, the fluorescence lifetime (in CO) came to 0.41 ns and the fluorescence lifetime (in ClC(Cl)Cl) is 2.44 ns.
`Cn1ccc(-n2cncn2)nc1=O` yielded a fluorescence lifetime (in O) of 3.43 ns.
In the case of `C[Si](C)(C)O[Si]1(O[Si](C)(C)C)n2c3c4ccccc4c2/N=C2N=C(/N=c4/c5ccccc5/c(n41)=N/C1=NC(=N\3)/c3ccccc31)c1ccccc1\2`, the fluorescence lifetime (in CN(C)C=O) worked out at 5.57 ns.
On to `CCCCCCN1C(=O)c2cccc3c(-c4ccc(-c5cccs5)s4)ccc(c23)C1=O`, for which the fluorescence lifetime (in ClC(Cl)Cl) was determined as 0.564 ns.
As to `CC1=[O+][B-]2(OC(=O)C(=O)O2)OC(c2c3ccccc3cc3ccccc23)=C1`, the fluorescence lifetime runs as follows: (in CC#N) 2.1 ns; (in ClC(Cl)(Cl)Cl) 1.2 ns.
As to `COC(=O)C(NC(=O)OC(C)(C)C)c1ccc2oc(-c3ccc(O)cc3O)nc2c1` (stereo not given), the fluorescence lifetime runs as follows: (in CC1CCCCC1) 0.3 ns; (in CC#N) 1.44 ns; (in CO) 1.33 ns.
In turn, `Cn1nc(-c2ccccc2)c2n[nH]nc2c1=O` came in with a fluorescence lifetime (in CC#N) of 2 ns, a fluorescence lifetime (in CCO) of 1.9 ns and a fluorescence lifetime (in Cc1ccccc1) of 1.2 ns.
Take `N#Cc1cc(-n2c3ccccc3c3cccnc32)c(-n2c3ccccc3c3cccnc32)cc1C#N`: the fluorescence lifetime under setting [1] was determined as 86 ns.
As for `Cc1ccc2c(c1)C(c1ccccc1)(c1ccccc1)c1cc(C)ccc1N2c1cc(C(C)C)c(B2c3ccccc3Sc3ccccc32)c(C(C)C)c1`, the fluorescence lifetime reads like this: (in Cc1ccccc1) 47 ns; (in O=P(c1ccccc1)(c1ccccc1)c1ccc2oc3ccc(P(=O)(c4ccccc4)c4ccccc4)cc3c2c1) 21 ns.
As to `C(=C\c1nc2c3ccccc3c3ccccc3c2o1)/c1ccccc1`, the fluorescence lifetime (in CC#N) worked out at 1.83 ns.
Take `CC(C)(C)c1ccc2c(c1)c1cc(C(C)(C)C)ccc1n2-c1ccc(-n2c3ccc(C(C)(C)C)cc3c3cc(C(C)(C)C)ccc32)c(-c2nccnc2C#N)c1`: the fluorescence lifetime under setting [1] was 7.2 ns.
On to `CCCCN1C(=O)c2cc(Oc3ccc(C(C)(C)C)cc3)c3c4c(Oc5ccc(C(C)(C)C)cc5)cc5c(=O)[nH]/c(=C\c6ccccn6)c6cc(Oc7ccc(C(C)(C)C)cc7)c(c7c(Oc8ccc(C(C)(C)C)cc8)cc(c2c37)C1=O)c4c56`, for which the fluorescence lifetime runs as follows: (in C1CCOC1) 3.33 ns; (in Cc1ccccc1) 3.57 ns; (in ClCCl) 4.05 ns.
Take `CN(c1ccccc1)c1ccc(N(c2ccccc2)c2ccc3ccc4c(N(c5ccccc5)c5ccc(N(C)c6ccccc6)cc5)ccc5ccc2c3c54)cc1`: where the note is “in ClCCl”, the fluorescence lifetime was found to be 1.1 ns.
Still for that read-out and setting: then `F[B-]1(F)Oc2ccccc2-c2c3c(c4c([n+]21)CCc1ccccc1-4)CCc1ccccc1-3`, with 2.15 ns; and `COc1cc(C(=O)c2c(C)c3ccc4cccc5c6cccc7ccc2c(c76)c3c45)cc(OC)c1OC`, with 1.35 ns.
